What was measured:
ALDH1A1 = biological target: T1, ALDH1A1 (Homo sapiens, UniProt P00352); assay: Selectivity biochemical assay, NAD(P)H-Glo Detection System
T1 construct: His-tag; made in house; host or cells: E. coli Rosetta (DE3)
T1 sequence (P00352 1-501): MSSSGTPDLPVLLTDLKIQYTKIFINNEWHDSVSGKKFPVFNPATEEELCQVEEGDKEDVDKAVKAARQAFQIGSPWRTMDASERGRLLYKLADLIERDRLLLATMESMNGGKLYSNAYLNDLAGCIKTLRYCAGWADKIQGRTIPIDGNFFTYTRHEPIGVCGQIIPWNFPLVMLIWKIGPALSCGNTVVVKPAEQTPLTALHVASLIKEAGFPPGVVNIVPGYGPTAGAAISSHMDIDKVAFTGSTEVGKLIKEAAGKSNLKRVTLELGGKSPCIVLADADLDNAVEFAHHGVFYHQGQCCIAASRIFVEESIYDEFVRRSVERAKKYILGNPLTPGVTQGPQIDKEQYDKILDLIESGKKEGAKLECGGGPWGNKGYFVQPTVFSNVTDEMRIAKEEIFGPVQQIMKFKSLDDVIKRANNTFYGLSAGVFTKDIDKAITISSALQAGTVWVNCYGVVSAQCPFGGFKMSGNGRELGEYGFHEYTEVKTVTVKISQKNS
Excerpt: (§1) Cloning: Open reading frames corresponding to the protein coding sequences of full length human ALDH1A1 (Uniprot ID P00352), ALDH1A2 (094788) and ALDH1A3 (P47895) were polymerase chain reaction (PCR) amplified from human cDNA and inserted into the multi-cloning sites of the commercially available (Novagen) E. coli expression vectors pET47b (ALDH1A1, EcoRI restriction site; ALDH1A2, BamHI and EcoRI sites) or pET28a (ALDH1A3, NdeI and BamHI sites), using standard molecular genetic techniques. Recombinant DNA products were sequence verified prior to use in expression studies.
(§2) Expression: Expression constructs were transformed into the E. coli strain Rosetta (DE3) (Merck) and individual colonies used to inoculate 10 mL lysogen broth (LB) medium supplemented with kanamycin and chloramphenicol at 50 μg/mL and 34 μg/mL, respectively. Cultures were grown to saturation overnight at 37° C., prior to being used to sub-inoculate fresh 1 L LB medium cultures (plus antibiotics, as before). 1 L cultures were grown at 37° C., 200 rpm, throughout the day until the optical density at 600 nm (OD600) reached ˜0.8, at which point growth temperature was reduced to 18° C. and 1 mM isopropyl β-d-1-thiogalacto pyranoside (IPTG) added to induce protein expression.
(§3) Cultures were left overnight (at least 16 h) under these conditions and the following day harvested by centrifugation (4000 G, 10 minutes). Culture supernatant was discarded and cell pellets stored at −80° C. until further processing.
(§4) Purification: Cell pellets were thawed on ice, re-suspended in Ni Affinity Buffer A (20 mM HEPES pH 7.5, 300 mM NaCl, 20 mM imidazole, 1 mM tris(2-carboxyethyl)phosphine (TCEP)) with protease inhibitors (cOmplete Ultra protease inhibitor, Roche), and lysed by sonication. Lysates were clarified by centrifugation at 18,000 G, 4° C., for 40 minutes, and loaded directly onto a pre-equilibrated (Buffer A) 5 mL HisTrap Fast Flow column (GE Healthcare) by way of an AKTA Fast Protein Liquid Chromatography (FPLC) system. The column was sequentially treated with 6 column volumes (CV) 100% Buffer A, 8 CV of 90% Buffer A:10% Buffer B (20 mM 4-(2-hydroxyethyl)-1-piperazineethanesulfonic acid (HEPES) pH 7.5, 300 mM NaCl, 500 mM imidazole, 1 mM TCEP) and finally a linear gradient from 10-70% Buffer B over 8 CV to elute recombinant His-tagged protein. Relevant fractions (as measured by 280 nm absorbance) collected during elution were pooled and subjected to further purification by size exclusion chromatography (Superdex 200 26/600, GE Healthcare, running buffer 20 mM 2-(carbamoylmethylamino)ethanesulfonic acid (ACES) pH 7.5, 1 mM TCEP). Relevant fractions from this step were pooled, aliquoted, and stored at −80° C. until required for compound profiling assays.
(§5) Materials: ALDH2 was purchased from Abnova. Tris(hydroxymethyl)aminomethane (Tris) was purchased from MP Biomedicals. TCEP, ethylenediaminetetraacetic acid (EDTA), propionaldehyde, DMSO and Tween-20 were purchased from Sigma. Nicotinamide adenine dinucleotide (NAD) was obtained from Abcam. The NAD(P)H-Glo™ Detection System was purchased from Promega. White, non-binding surface, 384 well plates were supplied by Corning (#3574).
(§6) Method: Inhibition of ALDH1A3 was assessed using the NAD(P)H-Glo™ Detection System (Cat. No. G9062) from Promega. This assay detects the production of NADH from NAD by ALDH1A3 via the coupled enzymatic conversion of a proluciferin reductase substrate to generate a luminescent signal. Inhibition of ALDH1A3 by small molecule inhibitors will result in reduction or abrogation of luminescence signal increase above background. Inhibition of ALDH1A1, ALDH1A2 and ALDH2 (selectivity assays) were assessed using the same assay.
(§7) Compounds were dosed into Corning 384 well assay plates using an Echo acoustic dispenser to give 10 point curves in a 3-fold dilution series. Compounds were dispensed from a 20 mM DMSO stock and initially screened at a top concentration of 20 μM (ALDH1A3) or 250 μM (ALDH1A1, ALDH1A2 & ALDH2). […]

ALDH1A3 = biological target: T2, ALDH1A3 (Homo sapiens, UniProt P47895); assay: Primary biochemical assay, NAD(P)H-Glo Detection System; parameters: His-tag; made in house; host or cells: E. coli Rosetta (DE3); details: 30 min pre-incubation, propionaldehyde and NAD at Km
T2 sequence (P47895 1-512): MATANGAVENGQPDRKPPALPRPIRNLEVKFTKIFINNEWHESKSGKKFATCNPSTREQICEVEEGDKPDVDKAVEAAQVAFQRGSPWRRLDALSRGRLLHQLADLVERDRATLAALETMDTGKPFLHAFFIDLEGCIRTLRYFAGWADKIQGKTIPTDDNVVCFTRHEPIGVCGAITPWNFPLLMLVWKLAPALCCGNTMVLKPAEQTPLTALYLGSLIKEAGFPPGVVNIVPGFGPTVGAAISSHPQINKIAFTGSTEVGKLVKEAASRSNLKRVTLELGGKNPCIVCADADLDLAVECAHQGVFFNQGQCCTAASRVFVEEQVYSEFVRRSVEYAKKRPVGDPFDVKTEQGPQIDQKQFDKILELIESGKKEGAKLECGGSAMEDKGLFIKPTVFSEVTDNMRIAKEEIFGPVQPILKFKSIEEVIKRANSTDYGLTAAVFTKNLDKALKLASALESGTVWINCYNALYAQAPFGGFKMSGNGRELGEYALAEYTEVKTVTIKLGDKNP
Excerpt: as §1, §2, §3, §4, §5, §6, §7

Compound | IC50 (ALDH1A1) [µM] | IC50 (ALDH1A3) [µM]
CCCC1Oc2cc(OCCN3CCCC3c3cccc(F)c3)ccc2NC1=O (stereo not shown) [ALDHI-2047, 7-[2-[2-(3-fluorophenyl)pyrrolidin-1-yl]ethoxy]-2-propyl-4H-1,4-benzoxazin-3-one] | ≥ 100 | 1 to 10
Cn1cc(C2CCCN2CCOc2ccc3c(c2)OCC(=O)N3)cn1 (stereo not shown) [ALDHI-2024, 7-[2-[2-(1-methylpyrazol-4-yl)pyrrolidin-1-yl]ethoxy]-4H-1,4-benzoxazin-3-one] | ≥ 100 | 1 to 10
CN(CCOc1ccc2c(c1)CCC(=O)N2)Cc1ccncc1 [ALDHI-3014, 6-[2-[methyl(4-pyridylmethyl)amino]ethoxy]-3,4-dihydro-1H-quinolin-2-one] | ≥ 100 | 1 to 10
Cc1nc(-c2cccc(F)c2)c(C(=O)Nc2ccc3c(c2)CCC(=O)N3)s1 [ALDHI-1026, 4-(3-fluorophenyl)-2-methyl-N-(2-oxo-3,4-dihydro-1H-quinolin-6-yl)thiazole-5-carboxamide] | ≥ 100 | < 0.1
CN(CCOc1ccc2c(c1)CCC(=O)N2)Cc1cnn(C)c1 [ALDHI-3009, 6-[2-[methyl-[(1-methylpyrazol-4-yl)methyl]amino]ethoxy]-3,4-dihydro-1H-quinolin-2-one] | 10 to 100 | 1 to 10
Cc1onc(-c2cccc(F)c2)c1C(=O)Nc1ccc2c(c1)CCC(=O)N2 [ALDHI-1009, 3-(3-fluorophenyl)-5-methyl-N-(2-oxo-3,4-dihydro-1H-quinolin-6-yl)isoxazole-4-carboxamide] | ≥ 100 | 1 to 10
Cn1cc(CN(CCO)CCOc2ccc3c(c2)CCC(=O)N3)cn1 [ALDHI-3011, 6-[2-[2-hydroxyethyl-[(1-methylpyrazol-4-yl)methyl]amino]ethoxy]-3,4-dihydro-1H-quinolin-2-one] | 10 to 100 | 1 to 10
O=C1CCc2cc(NC(=O)c3scnc3-c3cccc(F)c3)c(F)cc2N1 [ALDHI-1025, N-(7-fluoro-2-oxo-3,4-dihydro-1H-quinolin-6-yl)-4-(3-fluorophenyl)thiazole-5-carboxamide] | ≥ 100 | < 0.1
O=C1COc2cc(OCCN3CCCC3c3ccccn3)ccc2N1 (stereo not shown) [ALDHI-2025, 7-[2-[2-(2-pyridyl)pyrrolidin-1-yl]ethoxy]-4H-1,4-benzoxazin-3-one] | ≥ 100 | 1 to 10
Cc1nn(C)cc1C1CCCN1CCOc1ccc2c(c1)CCC(=O)N2 (stereo not shown) [ALDHI-2015, 6-[2-[2-(1,3-dimethylpyrazol-4-yl)pyrrolidin-1-yl]ethoxy]-3,4-dihydro-1H-quinolin-2-one] | ≥ 100 | 1 to 10
CS(=O)(=O)N1CCN(CCOc2ccc3c(c2)CCC(=O)N3)C(c2ccccc2)C1 (stereo not shown) [ALDHI-2046, 6-[2-(4-methylsulfonyl-2-phenyl-piperazin-1-yl)ethoxy]-3,4-dihydro-1H-quinolin-2-one] | 10 to 100 | 1 to 10
O=C1CCc2cc(NC(=O)c3scnc3-c3cccc(C(F)(F)F)c3)ccc2N1 [ALDHI-1015, N-(2-oxo-3,4-dihydro-1H-quinolin-6-yl)-4-[3-(trifluoromethyl)phenyl]thiazole-5-carboxamide] | ≥ 100 | 1 to 10
O=C1CCc2cc(OCCN3CCNCC3c3ccccc3)ccc2N1 (stereo not shown) [ALDHI-2036, 6-[2-(2-phenylpiperazin-1-yl)ethoxy]-3,4-dihydro-1H-quinolin-2-one] | ≥ 100 | 1 to 10
CN(CCOc1ccc2c(c1)CCC(=O)N2)Cc1ccccn1 [ALDHI-3012, 6-[2-[methyl(2-pyridylmethyl)amino]ethoxy]-3,4-dihydro-1H-quinolin-2-one] | ≥ 100 | 1 to 10
O=C1CCc2cc(NC(=O)c3scnc3-c3cc(F)cc(F)c3)ccc2N1 [ALDHI-1024, 4-(3,5-difluorophenyl)-N-(2-oxo-3,4-dihydro-1H-quinolin-6-yl)thiazole-5-carboxamide] | ≥ 100 | < 0.1
Cn1cccc1C1CCCN1CCOc1ccc2c(c1)CCC(=O)N2 (stereo not shown) [ALDHI-2017, 6-[2-[2-(1-methylpyrrol-2-yl)pyrrolidin-1-yl]ethoxy]-3,4-dihydro-1H-quinolin-2-one] | ≥ 100 | 1 to 10
CC(C)C1Oc2cc(OCCN3CCCC3c3cccc(F)c3)ccc2NC1=O (stereo not shown) [ALDHI-2049, 7-[2-[2-(3-fluorophenyl)pyrrolidin-1-yl]ethoxy]-2-isopropyl-4H-1,4-benzoxazin-3-one] | ≥ 100 | 1 to 10

— patent publication US20240174634A1, “Aldehyde Dehydrogenase Inhibitors and Their Therapeutic Use” (priority 2020, published 2024)
